How the values were obtained:
pinene hydroxylase = experiment: Pinene hydroxylase activity in crude cell extracts; format: biochemical, Bacillus BR424; settings: for pinene hydroxylase activity with cofactor: NADPH and NADH in place of FAD and potassium ferricyanide
Bacillus isolate BR425 = experiment: Growth of BR425 on monoterpenes as carbon source (CFU); format: cell-based; settings: for growth in media containing the monoterpene as the carbon source: BR425; for optimal concentration for growth: BR425, M9 salts, monoterpene as carbon source, 50° C.
Protocol: For examination of growth rates on various substrates and metabolite production, BR425 was grown in 100 ml serum bottles containing 40 ml M9 salts and various concentrations of either α-pinene, β-pinene, limonene, carveol, carvone, or pinocarveol as the carbon source. The bottles were sealed with TEFLON-coated stoppers and aluminum caps (TEFLON is a trademark owned by E. I. du Pont and Nemours, Wilmington, Del.). Then the bottles were incubated in a water bath gyrorotatory shaker at 50° C. Growth of BR425 was assayed after incubations of 24, 48, and 72 hours as number of colony forming units (CFU).

BR424 = experiment: Growth of BR424 on monoterpenes; format: cell-based, Bacillus isolate BR424

Compound	growth in media containing the monoterpene as the carbon source (Bacillus isolate BR425)	optimal concentration for growth (Bacillus isolate BR425) [%]	further results
Cc1cc2nc3c(=O)[nH]c(=O)nc-3n(C[C@H](O)[C@H](O)[C@H](O)COP(=O)(O)OP(=O)(O)OC[C@H]3O[C@@H](n4cnc5c(N)ncnc54)[C@H](O)[C@@H]3O)c2cc1C [FAD, Flavin Adenine Dinucleotide]			Enzyme activity (pinene hydroxylase; addition 0.1 mM FAD): 0.04 U/ml; Enzyme activity (pinene hydroxylase; addition 1 mM FAD): 0.47 U/ml
NC(=O)C1=CN([C@@H]2O[C@H](COP(=O)(O)OP(=O)(O)OC[C@H]3O[C@@H](n4cnc5c(N)ncnc54)[C@H](O)[C@@H]3O)[C@@H](O)[C@H]2O)C=CC1 [NADH]			pinene hydroxylase activity with cofactor (pinene hydroxylase): No pinene hydroxylase activity was detected
NC(=O)C1=CN([C@@H]2O[C@H](COP(=O)(O)OP(=O)(O)OC[C@H]3O[C@@H](n4cnc5c(N)ncnc54)[C@H](OP(=O)(O)O)[C@@H]3O)[C@@H](O)[C@H]2O)C=CC1 [NADPH]			pinene hydroxylase activity with cofactor (pinene hydroxylase): No pinene hydroxylase activity was detected
C=C(C)C1CC=C(C)[C@@H](O)C1 (stereo partly drawn) [carveol]	shown to grow	0.05	
C=C(C)C1CC=C(C)C(=O)C1 (stereo not drawn) [carvone]	shown to grow	0.01	
C=C(C)[C@H]1CC=C(C)CC1 [limonene]	shown to grow		growth in media containing the monoterpene (BR424): did not appear to be able to grow
CC1(C)C2CC=C(CO)C1C2 (stereo not drawn) [myrtenol]	did not appear to grow		
CC1(C)C2CC3OC3(C)C1C2 (stereo not drawn) [pinene epoxide]	did not appear to grow		
CC1=CCC2CC1C2(C)C (stereo not drawn) [α-pinene]		0.2	growth in media containing the monoterpene (BR424): can grow
C=C1CCC2CC1C2(C)C (stereo not drawn) [β-pinene]	shown to grow	0.2	growth in media containing the monoterpene (BR424): can grow
myrtenal	did not appear to grow		

From patent US6344350B1, “Method for degradation of pinenes by bacillus isolates” (priority 1997, dated 2002)
